± gives the standard deviation of the averaged measurements.
Columns and labels:
[1] = compound: Cc1ccc(NC(=O)c2ccc(CN3CCN(C)CC3)cc2)cc1Nc1nccc(-c2cccnc2)n1 [IMATINIB]; test: surviving fraction relative to DMSO-only wells; higher = less growth inhibition; details: exposure time: 5 days
How it was run: (§1)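 Tumour cell lines in log phase were plated in 384-well plates at 250–500 cells per well, then, after 24 hours, exposed continuously for five days to inhibitors at 0.5, 1, 5, 10, 50, 100, 500 and 1000 nM. Viability came from CellTiter-Glo luminescence, and surviving fraction is that signal normalised to the median of DMSO-only wells. Plates were read after 10 minutes at room temperature, and each line, screened three times, was kept only when replicate Pearson r was >0.7 and median Z' was >0.3.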

[2] = compound: O=C(CCCCCCC(=O)Nc1ccccc1)NO [VORINOSTAT]; test: as above; details: exposure time: 5 days
How it was run: as §1

22RV1 PROSTATE
surviving fraction ([1]; 0.5 nM): 1.06 ± 0.068 | surviving fraction ([1]; 1 nM): 1.08 ± 0.019 | surviving fraction ([1]; 5 nM): 1 ± 0.1 | surviving fraction ([1]; 10 nM): 1.05 ± 0.046 | surviving fraction ([1]; 500 nM): 1.14 ± 0.14 | surviving fraction ([2]; 0.5 nM): 0.946 ± 0.09 | surviving fraction ([2]; 1 nM): 1.02 ± 0.026 | surviving fraction ([2]; 5 nM): 0.987 ± 0.054 | surviving fraction ([2]; 10 nM): 0.994 ± 0.034 | surviving fraction ([2]; 50 nM): 1.09 ± 0.046 | surviving fraction ([2]; 100 nM): 1.03 ± 0.058 | surviving fraction ([2]; 500 nM): 1.03 ± 0.051 | surviving fraction ([2]; 1000 nM): 0.726 ± 0.071

93VU HEADNECK
surviving fraction ([1]; 0.5 nM): 1.11 ± 0.14 | surviving fraction ([1]; 1 nM): 1.13 ± 0.1 | surviving fraction ([1]; 5 nM): 1.18 ± 0.019 | surviving fraction ([1]; 50 nM): 1.3 ± 0.099 | surviving fraction ([1]; 100 nM): 1.25 ± 0.047 | surviving fraction ([1]; 500 nM): 1.29 ± 0.074 | surviving fraction ([1]; 1000 nM): 1.1 ± 0.079 | surviving fraction ([2]; 0.5 nM): 0.966 ± 0.02 | surviving fraction ([2]; 1 nM): 1.06 ± 0.045 | surviving fraction ([2]; 5 nM): 1.09 ± 0.087 | surviving fraction ([2]; 10 nM): 1.08 ± 0.077 | surviving fraction ([2]; 50 nM): 1.18 ± 0.093 | surviving fraction ([2]; 100 nM): 1.1 ± 0.07 | surviving fraction ([2]; 500 nM): 0.947 ± 0.035 | surviving fraction ([2]; 1000 nM): 0.731 ± 0.13

143B BONE
surviving fraction ([1]; 0.5 nM): 1.07 ± 0.022 | surviving fraction ([1]; 1 nM): 1.1 ± 0.03 | surviving fraction ([1]; 10 nM): 1.1 ± 0.013 | surviving fraction ([1]; 50 nM): 1.14 ± 0.043 | surviving fraction ([1]; 500 nM): 1.15 ± 0.1 | surviving fraction ([1]; 1000 nM): 1.14 ± 0.11 | surviving fraction ([2]; 0.5 nM): 1.01 ± 0.0028 | surviving fraction ([2]; 1 nM): 1.02 ± 0.011 | surviving fraction ([2]; 5 nM): 1.053 ± 0.0014 | surviving fraction ([2]; 10 nM): 1.01 ± 0.031 | surviving fraction ([2]; 50 nM): 1.01 ± 0.03 | surviving fraction ([2]; 100 nM): 1.02 ± 0.042 | surviving fraction ([2]; 500 nM): 0.858 ± 0.11 | surviving fraction ([2]; 1000 nM): 0.835 ± 0.026

A549 LUNG
surviving fraction ([1]; 0.5 nM): 1.09 ± 0.035 | surviving fraction ([1]; 1 nM): 1.07 ± 0.026 | surviving fraction ([1]; 5 nM): 1.11 ± 0.041 | surviving fraction ([1]; 10 nM): 1.09 ± 0.041 | surviving fraction ([1]; 50 nM): 1.11 ± 0.049 | surviving fraction ([1]; 100 nM): 1.1 ± 0.033 | surviving fraction ([1]; 1000 nM): 1.12 ± 0.016 | surviving fraction ([2]; 0.5 nM): 0.961 ± 0.026 | surviving fraction ([2]; 1 nM): 0.9313 ± 0.009 | surviving fraction ([2]; 5 nM): 0.923 ± 0.062 | surviving fraction ([2]; 10 nM): 0.919 ± 0.042 | surviving fraction ([2]; 50 nM): 1.04 ± 0.019 | surviving fraction ([2]; 100 nM): 1.02 ± 0.061 | surviving fraction ([2]; 500 nM): 1.18 ± 0.027 | surviving fraction ([2]; 1000 nM): 1.116 ± 0.006

ASKA SYNOVIAL
surviving fraction ([1]; 0.5 nM): 1.1 ± 0.017 | surviving fraction ([1]; 1 nM): 1.09 ± 0.03 | surviving fraction ([1]; 5 nM): 1.23 ± 0.1 | surviving fraction ([1]; 10 nM): 1.08 ± 0.095 | surviving fraction ([1]; 100 nM): 1.19 ± 0.1 | surviving fraction ([1]; 500 nM): 1.21 ± 0.095 | surviving fraction ([1]; 1000 nM): 1.07 ± 0.094 | surviving fraction ([2]; 0.5 nM): 1.01 ± 0.033 | surviving fraction ([2]; 1 nM): 1.03 ± 0.038 | surviving fraction ([2]; 5 nM): 1.08 ± 0.045 | surviving fraction ([2]; 10 nM): 0.951 ± 0.022 | surviving fraction ([2]; 50 nM): 1.05 ± 0.015 | surviving fraction ([2]; 100 nM): 1.01 ± 0.018 | surviving fraction ([2]; 500 nM): 0.724 ± 0.024 | surviving fraction ([2]; 1000 nM): 0.525 ± 0.028

BT20 BREAST
surviving fraction ([1]; 0.5 nM): 1.21 ± 0.064 | surviving fraction ([1]; 1 nM): 1.22 ± 0.12 | surviving fraction ([1]; 10 nM): 1.16 ± 0.062 | surviving fraction ([1]; 100 nM): 1.14 ± 0.033 | surviving fraction ([1]; 500 nM): 1.45 ± 0.19 | surviving fraction ([1]; 1000 nM): 1.46 ± 0.035 | surviving fraction ([2]; 0.5 nM): 1.05 ± 0.17 | surviving fraction ([2]; 1 nM): 1.09 ± 0.21 | surviving fraction ([2]; 5 nM): 1.06 ± 0.17 | surviving fraction ([2]; 10 nM): 1.05 ± 0.2 | surviving fraction ([2]; 50 nM): 0.941 ± 0.21 | surviving fraction ([2]; 100 nM): 0.943 ± 0.22 | surviving fraction ([2]; 500 nM): 0.872 ± 0.19 | surviving fraction ([2]; 1000 nM): 0.491 ± 0.12

BT549 BREAST
surviving fraction ([1]; 0.5 nM): 1.15 ± 0.1 | surviving fraction ([1]; 1 nM): 1.13 ± 0.068 | surviving fraction ([1]; 10 nM): 1.12 ± 0.044 | surviving fraction ([1]; 100 nM): 1.17 ± 0.04 | surviving fraction ([1]; 500 nM): 1.21 ± 0.11 | surviving fraction ([1]; 1000 nM): 1.1 ± 0.15 | surviving fraction ([2]; 0.5 nM): 1.12 ± 0.083 | surviving fraction ([2]; 1 nM): 1.14 ± 0.11 | surviving fraction ([2]; 5 nM): 1.15 ± 0.029 | surviving fraction ([2]; 10 nM): 1.22 ± 0.051 | surviving fraction ([2]; 50 nM): 1.12 ± 0.17 | surviving fraction ([2]; 100 nM): 1.11 ± 0.068 | surviving fraction ([2]; 500 nM): 0.773 ± 0.073 | surviving fraction ([2]; 1000 nM): 0.534 ± 0.034

C33A CERVIX
surviving fraction ([1]; 0.5 nM): 0.921 ± 0.058 | surviving fraction ([1]; 1 nM): 0.999 ± 0.073 | surviving fraction ([1]; 10 nM): 1.09 ± 0.1 | surviving fraction ([1]; 50 nM): 1.15 ± 0.08 | surviving fraction ([1]; 500 nM): 1.05 ± 0.022 | surviving fraction ([1]; 1000 nM): 1.08 ± 0.045 | surviving fraction ([2]; 0.5 nM): 0.86 ± 0.078 | surviving fraction ([2]; 1 nM): 0.952 ± 0.064 | surviving fraction ([2]; 5 nM): 1.04 ± 0.031 | surviving fraction ([2]; 10 nM): 1.05 ± 0.098 | surviving fraction ([2]; 50 nM): 1.04 ± 0.15 | surviving fraction ([2]; 100 nM): 1.05 ± 0.096 | surviving fraction ([2]; 500 nM): 0.805 ± 0.014 | surviving fraction ([2]; 1000 nM): 0.615 ± 0.048

CADOES1 SOFT TISSUE
surviving fraction ([1]; 0.5 nM): 0.94 ± 0.11 | surviving fraction ([1]; 1 nM): 0.897 ± 0.035 | surviving fraction ([1]; 5 nM): 0.926 ± 0.08 | surviving fraction ([1]; 10 nM): 0.872 ± 0.012 | surviving fraction ([1]; 100 nM): 0.948 ± 0.02 | surviving fraction ([1]; 500 nM): 1.03 ± 0.085 | surviving fraction ([1]; 1000 nM): 1.05 ± 0.14 | surviving fraction ([2]; 0.5 nM): 0.968 ± 0.063 | surviving fraction ([2]; 1 nM): 0.916 ± 0.028 | surviving fraction ([2]; 5 nM): 0.865 ± 0.096 | surviving fraction ([2]; 10 nM): 0.824 ± 0.057 | surviving fraction ([2]; 50 nM): 0.71 ± 0.23 | surviving fraction ([2]; 100 nM): 0.397 ± 0.23 | surviving fraction ([2]; 500 nM): 0.242 ± 0.057 | surviving fraction ([2]; 1000 nM): 0.0883 ± 0.016

CAL51 BREAST
surviving fraction ([1]; 0.5 nM): 1.04 ± 0.096 | surviving fraction ([1]; 5 nM): 1.08 ± 0.036 | surviving fraction ([1]; 10 nM): 1.06 ± 0.055 | surviving fraction ([1]; 50 nM): 1.08 ± 0.024 | surviving fraction ([1]; 100 nM): 1.06 ± 0.033 | surviving fraction ([1]; 500 nM): 1.1 ± 0.012 | surviving fraction ([1]; 1000 nM): 1.09 ± 0.054 | surviving fraction ([2]; 0.5 nM): 0.956 ± 0.013 | surviving fraction ([2]; 1 nM): 0.951 ± 0.056 | surviving fraction ([2]; 5 nM): 1.02 ± 0.011 | surviving fraction ([2]; 10 nM): 0.906 ± 0.021 | surviving fraction ([2]; 50 nM): 1.02 ± 0.024 | surviving fraction ([2]; 100 nM): 0.97 ± 0.078 | surviving fraction ([2]; 500 nM): 0.65 ± 0.022 | surviving fraction ([2]; 1000 nM): 0.403 ± 0.01

CAL72 BONE
surviving fraction ([1]; 0.5 nM): 1.11 ± 0.14 | surviving fraction ([1]; 1 nM): 1.09 ± 0.11 | surviving fraction ([1]; 5 nM): 1.12 ± 0.065 | surviving fraction ([1]; 10 nM): 1.07 ± 0.1 | surviving fraction ([1]; 50 nM): 1.15 ± 0.2 | surviving fraction ([1]; 500 nM): 1.12 ± 0.14 | surviving fraction ([1]; 1000 nM): 1.14 ± 0.087 | surviving fraction ([2]; 0.5 nM): 1.02 ± 0.056 | surviving fraction ([2]; 1 nM): 1.09 ± 0.022 | surviving fraction ([2]; 5 nM): 1.08 ± 0.02 | surviving fraction ([2]; 10 nM): 1.07 ± 0.026 | surviving fraction ([2]; 50 nM): 1.08 ± 0.029 | surviving fraction ([2]; 100 nM): 1.07 ± 0.018 | surviving fraction ([2]; 500 nM): 1.05 ± 0.022 | surviving fraction ([2]; 1000 nM): 1.06 ± 0.042

Reference: the supplement of paper PMC6045584
